Results reported in patent US11053216B2, “Compounds and methods of use” (Medivation Technologies LLC, priority 2014, dated 2021).

How the values were obtained:
[1] = Pharmacokinetics and bioavailability in male mice after a single dose; assay type: in vivo
[2] = Plasma and brain concentrations at 0.5 and 1 h; assay type: in vivo, mice
ALK3 (BMPR1A) = ALK3 (BMPR1A) (Homo sapiens (Human), UniProt P36894); assay: In vitro kinase assay (33P ATP, 10 μM ATP); assay type: biochemical; settings: read-out: Inhibition of ALK3 (IC50 μM)
Chain of ALK3 (BMPR1A) (P36894 24-532): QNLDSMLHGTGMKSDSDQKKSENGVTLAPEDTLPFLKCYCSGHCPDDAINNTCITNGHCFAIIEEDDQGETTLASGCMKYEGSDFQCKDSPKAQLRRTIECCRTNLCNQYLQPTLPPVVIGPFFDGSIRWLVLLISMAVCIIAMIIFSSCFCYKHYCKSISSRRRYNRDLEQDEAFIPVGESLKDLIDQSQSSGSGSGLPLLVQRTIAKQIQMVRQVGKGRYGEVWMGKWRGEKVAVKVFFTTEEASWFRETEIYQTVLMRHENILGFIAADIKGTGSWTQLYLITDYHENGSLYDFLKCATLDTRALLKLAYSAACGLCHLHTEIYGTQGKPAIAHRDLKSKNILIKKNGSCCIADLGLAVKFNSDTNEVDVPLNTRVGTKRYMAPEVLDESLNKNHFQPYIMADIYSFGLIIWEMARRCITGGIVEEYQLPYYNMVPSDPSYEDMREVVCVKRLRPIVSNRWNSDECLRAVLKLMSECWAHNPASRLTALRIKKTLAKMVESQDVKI

Row | SMILES | Cmax ([1]; oral, 10 mg/kg) [µM] | Brain concentration ([2]; IV 2 mg/kg, 0.5 h) [ng/mL] | Plasma concentration ([2]; IV 2 mg/kg, 0.5 h) [ng/mL] | Brain concentration ([2]; IV 2 mg/kg, 1 h) [ng/mL] | Plasma concentration ([2]; IV 2 mg/kg, 1 h) [ng/mL] | Brain concentration ([2]; PO 10 mg/kg, 0.5 h) [ng/mL] | Plasma concentration ([2]; PO 10 mg/kg, 0.5 h) [ng/mL] | Brain concentration ([2]; PO 10 mg/kg, 1 h) [ng/mL] | Plasma concentration ([2]; PO 10 mg/kg, 1 h) [ng/mL] | also measured
1 | CCc1cnc(-c2cc(Cl)ccc2F)cc1Nc1ccncc1C(=O)NC[C@H](C)O (single isomer, unassigned) [11a] | 3.48 |  |  |  |  |  |  |  |  | 
2 | C=C(C)c1cnc(-c2cc(Cl)ccc2F)cc1Nc1ccncc1C(=O)NC[C@H](C)O [3a, (S)-4-(2-(5-chloro-2-fluorophenyl)-5-(prop-1-en-2-yl)pyridin-4-ylamino)-N-(2-hydroxypropyl)pyridine-5-carboxamide] |  | 173 | 432 | 168 | 365 | 305 | 1280 | 406 | 1250 | 
3 | CC(C)c1cnc(-c2cc(Cl)ccc2F)cc1Nc1ccncc1C(=O)NC[C@H](C)O [2a, (S)-4-[[2-(5-chloro-2-fluoro-phenyl)-5-isopropyl-4-pyridyl]amino]-N-(2-hydroxypropyl)pyridine-3-carboxamide] |  | 73.2 | 310 | 82.4 | 366 | 202 | 1570 | 114 | 905 | 
4 | C[C@H](O)CNC(=O)c1cnccc1Nc1cc(-c2cc(Cl)ccc2F)ncc1N(C)C [16a, (S)-4-(2-(5-chloro-2-fluorophenyl)-5-(dimethylamino)pyridin-4-ylamino)-N-(2-hydroxypropyl)nicotinamide] | 3.42 |  |  |  |  |  |  |  |  | 
5 | CC(C)c1cnc(-c2cc(Cl)ccc2F)cc1Nc1ncncc1C(=O)NC[C@H](C)O (single isomer, unassigned) [12a] |  |  |  |  |  |  |  |  |  | Cmax ([1]; mouse, plasma, intravenous, 2 mg/kg): 7.15 µM
6 | Fc1ccc(Cl)cc1-c1cc(Nc2ccnc3[nH]ccc23)c(C2CC2)cn1 [compound 32, 2-(5-chloro-2-fluorophenyl)-5-cyclopropyl-N-{1H-pyrrolo[2,3-b]pyridin-4-yl}pyridin-4-amine] |  |  |  |  |  |  |  |  |  | IC50 (ALK3 (BMPR1A)): 333 µM
